According to ChEMBL document CHEMBL1134495, “3D-QSAR model of flavonoids binding at benzodiazepine site in GABAA receptors” (J Med Chem, 2001):

Molecular target: GABA-A receptor; anion channel
Experiment: Binding affinity towards benzodiazepine site in GABAA receptor
Assay type: protein-complex assay

SMILES | -Log Ki
COc1c(O)cc2oc(-c3ccc(O)cc3)cc(=O)c2c1O [HISPIDULIN] | 6
O=c1cc(-c2ccc(Br)cc2)oc2ccc([N+](=O)[O-])cc12 | 7.6
O=c1cc(-c2ccc(O)cc2)oc2cc(O)cc(O)c12 [APIGENIN] | 5.52
O=c1cc(-c2cccc([N+](=O)[O-])c2)oc2ccc(Cl)cc12 | 8.1
O=C(O)[C@H]1O[C@@H](Oc2cc3oc(-c4ccccc4)cc(=O)c3c(O)c2O)[C@H](O)[C@@H](O)[C@@H]1O [BAICALIN] | 4.11
O=c1cc(-c2ccc(F)cc2)oc2ccc(Br)cc12 | 6.94
O=c1cc(-c2cccc([N+](=O)[O-])c2)oc2ccc(F)cc12 | 6.74
O=c1cc(-c2ccc(O)cc2)oc2cc(O)c(O)c(O)c12 [SCUTELLAREIN] | 4.92
O=c1cc(-c2ccccc2[N+](=O)[O-])oc2ccc(Br)cc12 | 6.68
O=c1cc(-c2cccc([N+](=O)[O-])c2)oc2ccc([N+](=O)[O-])cc12 | 7.92
COc1ccc(-c2cc(=O)c3cc(Br)ccc3o2)cc1 | 5.68
COc1ccc(-c2cc(=O)c3cc(Cl)ccc3o2)cc1 | 5.9
O=c1cc(-c2ccccc2Cl)oc2cc(O)cc(O)c12 | 5.1
O=c1cc(-c2cccc([N+](=O)[O-])c2)oc2ccc(Br)cc12 | 9
O=c1cc(-c2ccc([N+](=O)[O-])cc2)oc2ccc(Br)cc12 | 6.7
COc1c(O)cc(O)c2c(=O)cc(-c3ccccc3)oc12 [WOGONIN] | 5.69
O=c1cc(-c2ccccc2F)oc2cc(O)cc(O)c12 | 5.1
O=c1cc(-c2ccccc2)oc2c(Br)c(O)c(Br)c(O)c12 | 6.15

Continued, values first:

-Log Ki | SMILES
5.44 | O=c1cc(-c2ccc(F)cc2)oc2ccccc12
5.25 | O=c1cc(-c2ccccc2)oc2cc(O)c(O)c(O)c12 [BAICALEIN]
7.64 | O=c1cc(-c2cccc(Br)c2)oc2ccc(Cl)cc12
7.77 | O=c1cc(-c2cccc(Cl)c2)oc2ccc(Br)cc12
6.22 | O=c1cc(-c2cccc(O)c2)oc2ccc(Br)cc12
6.38 | O=c1cc(-c2cccc(Br)c2)oc2ccccc12
6.04 | O=c1cc(-c2cccc(F)c2)oc2ccc(F)cc12
7.38 | O=c1cc(-c2cccc(F)c2)oc2ccc(Br)cc12
5.6 | O=c1cc(-c2cccc(O)c2)oc2ccc(F)cc12
5.6 | O=c1cc(-c2ccc(F)cc2)oc2ccc(F)cc12
6.63 | O=c1cc(-c2cccc(Br)c2)oc2ccc(F)cc12
6 | O=c1cc(-c2ccccc2)oc2ccccc12 [FLAVONE]
7.72 | O=c1cc(-c2cccc(Br)c2)oc2ccc(Br)cc12
7.15 | O=c1cc(-c2ccccc2)oc2ccc(Br)cc12 [6-BROMOFLAVONE]
5.45 | O=c1cc(-c2cccc(F)c2)oc2ccccc12
6.7 | O=c1cc(-c2cccc(Cl)c2)oc2ccc(F)cc12
6.93 | O=c1cc(-c2cccc(F)c2)oc2ccc(Cl)cc12
6.74 | O=c1cc(-c2ccc(F)cc2)oc2ccc(Cl)cc12
5.52 | O=c1cc(-c2ccccc2)oc2cc(O)cc(O)c12 [CHRYSIN]
6.42 | O=c1cc(-c2ccccc2F)oc2ccc(Br)cc12
7.64 | O=c1cc(-c2cccc(Cl)c2)oc2ccc(Cl)cc12
6.38 | O=c1cc(-c2ccccc2F)oc2ccc(Cl)cc12
6.21 | O=c1cc(-c2cccc(Cl)c2)oc2ccccc12
6.07 | O=c1cc(-c2cccc(O)c2)oc2ccc(Cl)cc12
